Test results reported in ChEMBL document CHEMBL1201862, “PubChem BioAssay data set” (2004).
“And” between values parts separate entries of the source, which are not always exact repeats. Equal values may be shown once.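 A five-concentration, 48-hour dose response in 96-well plates underlies each endpoint, interpolated linearly between surrounding concentrations. GI50 marks 50% less growth.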 The source made the active and inactive calls. Cut-off read from the data, not from the text of the source: active = GI50 up to about 1.1 µM and inactive = higher.

How the values were obtained:
Test in all cases: NCI-60 cell line screen, 48 h
[1] = system: 786-0
[2] = system: A498
[3] = system: A549
[4] = system: ACHN
[5] = system: CAKI-1
[6] = system: HCC 2998
[7] = system: MDA-MB-435
[8] = system: MDA-N
[9] = system: NCI-H226
[10] = system: OVCAR-8
[11] = system: PC-3
[12] = system: RPMI-8226
[13] = system: RXF 393
[14] = system: SF-539
[15] = system: SK-MEL-5
[16] = system: SK-OV-3
[17] = system: TK-10
[18] = system: U-251
[19] = system: UACC-62
[20] = system: UO-31

Measured: GI50

CC(C)=CCC[C@@H](C)C1=C(Nc2ccccc2F)C(=O)C(C)=C(O)C1=O
inactive: [1] 5.65 µM | [2] 6.78 µM | [3] 4.09 µM | [4] 3.5 µM | [5] 5.83 µM | [6] 7.59 µM | [7] 6.22 µM | [8] 10.6 µM | [9] 5.3 µM | [10] 3.49 µM | [11] 8.61 µM | [12] 17.4 µM | [13] 16.8 µM | [14] 10.1 µM | [15] 3.18 µM | [16] 6.47 µM | [17] 5.82 µM | [18] 8.49 µM | [19] 4.81 µM | [20] 4.45 µM

CCN(CC)CCCNc1c2c(Cl)cc(Cl)cc2nc2nc(O)nc(C)c12
inactive: [1] 18.7 µM | [2] > 100 µM | [3] 42.9 µM | [4] > 100 µM | [5] > 100 µM | [6] 21.5 µM | [7] 21.3 µM | [8] 18.6 µM | [9] 55.2 µM | [10] > 10 µM | [11] 30.7 µM | [12] > 10 µM | [13] > 100 µM | [14] > 100 µM | [15] 65.9 µM | [16] 25.6 µM | [17] > 100 µM | [18] 17.3 µM | [19] 68.2 µM | [20] > 100 µM

CCCCCCCCCCCCCCCCOP(=O)(O)OP(=O)(O)OCC1OC(n2ccc(N)nc2=O)CC1O (stereo not given)
inactive: [1] > 100 µM | [2] > 100 µM | [3] > 100 µM | [4] > 100 µM | [5] > 100 µM | [6] > 100 µM | [7] > 100 µM | [8] > 100 µM | [9] > 100 µM | [10] > 100 µM | [11] > 100 µM | [12] > 100 µM | [13] > 100 µM | [14] > 100 µM | [15] > 100 µM | [16] > 100 µM | [17] > 100 µM | [18] > 100 µM | [19] > 100 µM | [20] > 100 µM

CN(C)C(c1ccccc1)C1COC2Cc3ccccc3C1O2 (stereo not given)
inactive: [1] > 100 µM | [2] > 100 µM | [3] > 100 µM | [4] > 100 µM | [5] > 100 µM | [6] > 100 µM | [7] > 100 µM | [8] > 100 µM | [9] 72.9 µM | [10] > 100 µM | [11] 99.3 µM and 76.4 µM | [12] > 100 µM and 91 µM | [13] > 100 µM | [14] > 100 µM | [15] > 100 µM | [16] > 100 µM | [17] > 100 µM | [18] > 100 µM | [19] > 100 µM | [20] > 100 µM

O=S1(=O)CS(=O)(=O)OCCO1
inactive: [1] 10.9 µM | [2] 52.5 µM | [3] 46.1 µM | [4] 15.3 µM | [5] 38.4 µM | [6] 46.6 µM | [7] 44.2 µM | [8] 33.8 µM | [9] 41.4 µM | [10] 55.3 µM | [11] 82 µM | [12] 62.5 µM | [13] 41.6 µM | [14] 11.3 µM | [15] 40.1 µM | [16] 28.5 µM | [17] 82.8 µM | [18] 21.3 µM | [19] 6.43 µM | [20] 61 µM

C[C@H]1CCC/C=C/[C@@H]2C[C@H](OC3OC(CO)C(O)C(O)C3O)C[C@H]2[C@H](O)/C=C/C(=O)O1 (stereo not given in full)
inactive: [1] 36.7 µM | [2] 25.5 µM | [3] 88.7 µM | [4] > 100 µM | [5] > 100 µM | [6] 29.7 µM | [7] 50.6 µM | [8] 36.3 µM | [9] 22.5 µM | [10] 39.5 µM | [11] 64.6 µM | [12] 53.8 µM | [13] 19 µM | [14] 32.1 µM | [15] 17.2 µM | [16] 40 µM | [17] 91.2 µM | [18] 94 µM | [19] 35.6 µM | [20] 24.4 µM

O=Cc1ccc(-c2cccs2)s1
inactive: [1] > 100 µM | [2] 2.46 µM | [3] 60 µM | [4] > 100 µM | [5] 13.8 µM | [6] 72.8 µM | [7] 66.2 µM | [8] > 100 µM | [9] 1.94 µM | [10] > 100 µM | [11] > 100 µM | [12] 57.5 µM | [13] 18.4 µM | [14] > 100 µM | [15] 58.1 µM | [16] > 100 µM | [17] 3.88 µM | [18] 12.2 µM | [19] 1.16 µM | [20] 64 µM

CCOC(=O)C(NC(=O)c1ccccc1)(Nc1ccc(Cl)cc1C(F)(F)F)C(F)(F)F (stereo not given)
inactive: [1] 8.95 µM | [2] 6.05 µM | [3] 4.59 µM | [4] 9.42 µM | [5] 7.5 µM | [6] > 28.3 µM | [7] 1.26 µM | [8] 1.51 µM | [9] 16.7 µM | [10] 5.36 µM | [11] 3.13 µM | [12] 2.96 µM | [13] 3.44 µM | [14] 5.71 µM | [15] 4.91 µM | [16] 9.4 µM | [17] 8.26 µM | [18] 3.74 µM | [19] 5.3 µM | [20] 5.21 µM

COc1ccc2[nH]cc(C(=O)C(=O)NC34CC5CC(CC(C5)C3)C4)c2c1
inactive: [1] 8.09 µM | [2] 43.8 µM | [3] 26.2 µM | [4] 29.4 µM | [5] > 45.4 µM | [6] 28.1 µM | [7] 41.3 µM | [8] 84.7 µM | [9] 22.9 µM | [10] 35.6 µM | [11] 38.3 µM | [12] 4.69 µM | [13] 3.22 µM | [14] 14 µM | [15] 32.2 µM | [16] 73.3 µM | [17] 48.8 µM | [18] 13.5 µM | [19] 23.8 µM | [20] > 100 µM

COc1ccc([C@@]23CCC(=O)C[C@@H]2N(C)CC3)cc1OC
inactive: [1] > 100 µM | [2] > 100 µM | [3] > 100 µM | [4] > 100 µM | [5] > 100 µM | [6] > 100 µM | [7] > 100 µM | [8] > 100 µM | [9] > 100 µM | [10] > 100 µM | [11] > 100 µM | [12] > 100 µM | [13] > 100 µM | [14] > 100 µM | [15] > 100 µM | [16] > 100 µM | [17] > 100 µM | [18] > 100 µM | [19] > 100 µM | [20] > 100 µM
